Measurements published in ChEMBL document CHEMBL4028908, “The Discovery of 3-((4-Chloro-3-methoxyphenyl)amino)-1-((3R,4S)-4-cyanotetrahydro-2H-pyran-3-yl)-1H-pyrazole-4-carboxamide, a Highly Ligand Efficient and Efficacious Janus Kinase 1 Selective Inhibitor with Favorable Pharmacokinetic Properties” (J Med Chem, 2017).
In brackets after ≈: the same amount, converted by molar mass.

Key:
[1] = Intrinsic clearance in rat hepatocytes after 120 mins by LC-MS/MS analysis; assay type: ADME, cell-based, Hepatocyte; settings: read-out: CLH
[2] = Oral bioavailability in rat at 1 mg/kg; assay type: ADME, organism-based; settings: in vivo
[3] = molecular target: Non-receptor tyrosine-protein kinase TYK2 (Homo sapiens, UniProt P29597)
[4] = molecular target: T1, Voltage-gated inwardly rectifying potassium channel KCNH2 (Homo sapiens, UniProt Q12809)
Homo sapiens = species: Homo sapiens; experiment: Selectivity ratio of IC50 for GST-tagged recombinant human JAK2 catalytic domain to IC50 for GST-tagged recombinant human JAK1 catalytic domain
[5] = Lipophilicity, log D of the compound at 100 uM at pH 7 by HPLC/DAD analysis; assay type: physicochemical; settings: buffer
[6] = Intrinsic clearance in human hepatocytes after 120 mins by LC-MS/MS analysis; assay type: ADME, cell-based, Hepatocyte; settings: read-out: CLH
[7] = molecular target: T2, Tyrosine-protein kinase JAK1 (Homo sapiens, UniProt P23458)
[8] = molecular target: T3, Tyrosine-protein kinase JAK3 (Homo sapiens, UniProt P52333)
T3 sequence (P52333 whole entry): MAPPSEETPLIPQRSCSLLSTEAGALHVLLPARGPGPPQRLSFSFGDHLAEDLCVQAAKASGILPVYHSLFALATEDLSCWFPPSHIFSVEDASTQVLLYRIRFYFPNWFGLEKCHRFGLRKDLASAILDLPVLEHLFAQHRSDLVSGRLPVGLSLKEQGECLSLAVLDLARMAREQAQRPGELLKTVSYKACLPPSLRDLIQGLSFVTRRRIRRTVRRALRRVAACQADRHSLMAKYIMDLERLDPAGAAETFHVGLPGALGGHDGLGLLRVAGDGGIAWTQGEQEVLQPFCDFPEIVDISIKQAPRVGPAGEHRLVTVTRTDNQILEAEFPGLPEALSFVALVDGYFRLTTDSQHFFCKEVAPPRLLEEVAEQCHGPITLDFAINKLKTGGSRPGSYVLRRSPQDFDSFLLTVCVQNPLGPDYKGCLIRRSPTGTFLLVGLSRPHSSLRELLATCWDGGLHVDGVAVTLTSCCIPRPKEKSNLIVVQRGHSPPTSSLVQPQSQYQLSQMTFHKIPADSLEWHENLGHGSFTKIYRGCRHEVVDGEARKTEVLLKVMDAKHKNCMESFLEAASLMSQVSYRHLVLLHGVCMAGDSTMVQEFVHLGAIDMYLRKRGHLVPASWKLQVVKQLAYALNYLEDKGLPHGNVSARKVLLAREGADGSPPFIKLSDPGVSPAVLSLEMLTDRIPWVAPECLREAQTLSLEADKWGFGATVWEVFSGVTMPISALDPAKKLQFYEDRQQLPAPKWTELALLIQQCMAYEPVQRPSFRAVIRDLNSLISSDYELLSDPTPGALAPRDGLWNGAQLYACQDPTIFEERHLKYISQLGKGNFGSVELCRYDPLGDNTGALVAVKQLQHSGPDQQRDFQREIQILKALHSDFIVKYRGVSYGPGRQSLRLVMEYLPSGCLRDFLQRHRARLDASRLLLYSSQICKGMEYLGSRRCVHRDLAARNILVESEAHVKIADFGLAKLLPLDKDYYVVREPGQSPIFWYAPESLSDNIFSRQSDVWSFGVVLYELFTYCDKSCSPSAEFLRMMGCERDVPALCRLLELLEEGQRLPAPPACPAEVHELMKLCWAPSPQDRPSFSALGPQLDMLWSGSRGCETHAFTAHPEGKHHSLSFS

[9] = molecular target: T4, Tyrosine-protein kinase JAK2 (Homo sapiens, UniProt O60674)
[10] = molecular target: T4, Tyrosine-protein kinase JAK2; remark: listed apart in the source
[11] = molecular target: T2, Tyrosine-protein kinase JAK1; remark: listed apart in the source
[12] = Solubility of the compound in FaSSIF solution at 100 uM after overnight incubation by UPLC/DAD analysis; assay type: physicochemical
[13] = Plasma clearance in rat at 0.5 mg/kg, iv or 1 mg/kg, po; assay type: ADME, organism-based
Rattus norvegicus [14] = experiment: Unbound clearance in rat at 0.5 mg/kg, iv or 1 mg/kg, po; assay type: ADME, organism-based; settings: in vivo
[15] = Plasma clearance in dog at 0.25 mg/kg, iv or 0.5 mg/kg, po; assay type: ADME, organism-based, Canis lupus familiaris
[16] = molecular target: T1, Voltage-gated inwardly rectifying potassium channel KCNH2; experiment: Inhibition of human ERG expressed in HEK293 cells by patch clamp method; assay type: cell-based
[17] = Volume of distribution at steady state in rat at 0.5 mg/kg, iv or 1 mg/kg, po; assay type: ADME, organism-based; settings: in vivo, read-out: Vdss
[18] = Oral bioavailability in dog at 0.5 mg/kg; assay type: ADME, organism-based, Canis lupus familiaris; settings: in vivo
[19] = Volume of distribution at steady state in dog at 0.25 mg/kg, iv or 0.5 mg/kg, po; assay type: ADME, organism-based, Canis lupus familiaris; settings: in vivo, read-out: Vdss
[20] = Oral bioavailability in cynomolgus monkey at 0.5 mg/kg; assay type: ADME, organism-based, Macaca fascicularis; settings: in vivo
[21] = molecular target: T2, Tyrosine-protein kinase JAK1; experiment: Inhibition of JAK1 in human whole blood assessed as decrease in cytokine-stimulated STAT phosphorylation preincubated for 20 mins followed by cytokine addition measured after 30 mins
[22] = Half life in rat at 0.5 mg/kg, iv or 1 mg/kg, po; assay type: ADME, organism-based; settings: in vivo
[23] = Plasma clearance in cynomolgus monkey at 0.25 mg/kg, iv or 0.5 mg/kg, po; assay type: ADME, organism-based, Macaca fascicularis
[24] = Half life in dog at 0.25 mg/kg, iv or 0.5 mg/kg, po; assay type: ADME, organism-based, Canis lupus familiaris; settings: in vivo
[25] = Intrinsic clearance in dog hepatocytes after 120 mins by LC-MS/MS analysis; assay type: ADME, cell-based, Canis lupus familiaris, Hepatocyte; settings: read-out: CLH
[26] = Intrinsic clearance in cynomolgus monkey hepatocytes after 120 mins by LC-MS/MS analysis; assay type: ADME, cell-based, Macaca fascicularis, Hepatocyte; settings: read-out: CLH
Cynomolgus monkey = experiment: Unbound clearance in cynomolgus monkey at 0.25 mg/kg, iv or 0.5 mg/kg, po; assay type: ADME, organism-based, Macaca fascicularis; settings: in vivo
[27] = Volume of distribution at steady state in cynomolgus monkey at 0.25 mg/kg, iv or 0.5 mg/kg, po; assay type: ADME, organism-based, Macaca fascicularis; settings: in vivo, read-out: Vdss
Rattus norvegicus [28] = experiment: Antiinflammatory activity in po dosed Lewis rat type 2 bovine collagen-induced arthritis model assessed as inhibition of paw swelling administered as bid on day 17; assay type: functional, organism-based
[29] = Half life in cynomolgus monkey at 0.25 mg/kg, iv or 0.5 mg/kg, po; assay type: ADME, organism-based, Macaca fascicularis; settings: in vivo
[30] = Protein binding in cynomolgus monkey plasma; assay type: ADME, cell-free, Macaca fascicularis; settings: read-out: PPB (converted)
[31] = Protein binding in rat plasma; assay type: ADME, cell-free; settings: read-out: PPB (converted)
Canis familiaris = experiment: Unbound clearance in dog at 0.25 mg/kg, iv or 0.5 mg/kg, po; assay type: ADME, organism-based, Canis lupus familiaris; settings: in vivo
[32] = Protein binding in dog plasma; assay type: ADME, cell-free, Canis lupus familiaris; settings: read-out: PPB (converted)
[33] = Apparent permeability of the compound by cell-based assay; assay type: physicochemical; settings: not told

Chain of Non-receptor tyrosine-protein kinase TYK2 (P29597 whole entry): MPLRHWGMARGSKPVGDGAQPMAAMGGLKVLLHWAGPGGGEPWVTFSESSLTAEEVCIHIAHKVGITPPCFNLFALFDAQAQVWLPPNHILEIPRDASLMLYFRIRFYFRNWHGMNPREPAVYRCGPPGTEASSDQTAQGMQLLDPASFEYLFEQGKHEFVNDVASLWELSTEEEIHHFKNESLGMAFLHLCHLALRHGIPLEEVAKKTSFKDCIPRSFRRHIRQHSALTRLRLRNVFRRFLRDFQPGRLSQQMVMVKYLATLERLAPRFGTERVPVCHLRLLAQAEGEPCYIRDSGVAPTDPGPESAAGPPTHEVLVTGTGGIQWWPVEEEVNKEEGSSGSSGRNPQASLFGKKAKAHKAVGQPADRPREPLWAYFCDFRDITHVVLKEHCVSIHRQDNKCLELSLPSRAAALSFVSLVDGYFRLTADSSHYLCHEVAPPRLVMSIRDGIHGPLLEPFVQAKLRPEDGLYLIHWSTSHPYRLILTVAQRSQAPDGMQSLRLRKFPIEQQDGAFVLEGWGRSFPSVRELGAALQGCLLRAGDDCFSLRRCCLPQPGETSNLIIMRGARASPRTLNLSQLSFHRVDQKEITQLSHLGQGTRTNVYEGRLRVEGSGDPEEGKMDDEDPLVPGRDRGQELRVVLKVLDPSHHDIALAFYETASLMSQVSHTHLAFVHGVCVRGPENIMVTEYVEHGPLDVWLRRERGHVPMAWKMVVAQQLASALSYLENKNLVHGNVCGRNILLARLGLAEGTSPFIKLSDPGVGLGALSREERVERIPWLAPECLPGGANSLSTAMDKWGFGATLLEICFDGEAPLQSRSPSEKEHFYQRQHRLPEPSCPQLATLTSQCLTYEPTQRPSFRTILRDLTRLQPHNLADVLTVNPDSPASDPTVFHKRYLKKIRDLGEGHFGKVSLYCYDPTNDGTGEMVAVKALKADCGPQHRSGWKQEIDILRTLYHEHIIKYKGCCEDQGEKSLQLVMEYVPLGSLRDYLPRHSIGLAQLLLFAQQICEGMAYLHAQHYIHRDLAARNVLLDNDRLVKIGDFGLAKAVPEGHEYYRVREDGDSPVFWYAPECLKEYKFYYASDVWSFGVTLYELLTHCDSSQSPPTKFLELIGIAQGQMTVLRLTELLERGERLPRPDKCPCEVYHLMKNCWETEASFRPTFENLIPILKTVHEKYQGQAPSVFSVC
T2 sequence (P23458 whole entry): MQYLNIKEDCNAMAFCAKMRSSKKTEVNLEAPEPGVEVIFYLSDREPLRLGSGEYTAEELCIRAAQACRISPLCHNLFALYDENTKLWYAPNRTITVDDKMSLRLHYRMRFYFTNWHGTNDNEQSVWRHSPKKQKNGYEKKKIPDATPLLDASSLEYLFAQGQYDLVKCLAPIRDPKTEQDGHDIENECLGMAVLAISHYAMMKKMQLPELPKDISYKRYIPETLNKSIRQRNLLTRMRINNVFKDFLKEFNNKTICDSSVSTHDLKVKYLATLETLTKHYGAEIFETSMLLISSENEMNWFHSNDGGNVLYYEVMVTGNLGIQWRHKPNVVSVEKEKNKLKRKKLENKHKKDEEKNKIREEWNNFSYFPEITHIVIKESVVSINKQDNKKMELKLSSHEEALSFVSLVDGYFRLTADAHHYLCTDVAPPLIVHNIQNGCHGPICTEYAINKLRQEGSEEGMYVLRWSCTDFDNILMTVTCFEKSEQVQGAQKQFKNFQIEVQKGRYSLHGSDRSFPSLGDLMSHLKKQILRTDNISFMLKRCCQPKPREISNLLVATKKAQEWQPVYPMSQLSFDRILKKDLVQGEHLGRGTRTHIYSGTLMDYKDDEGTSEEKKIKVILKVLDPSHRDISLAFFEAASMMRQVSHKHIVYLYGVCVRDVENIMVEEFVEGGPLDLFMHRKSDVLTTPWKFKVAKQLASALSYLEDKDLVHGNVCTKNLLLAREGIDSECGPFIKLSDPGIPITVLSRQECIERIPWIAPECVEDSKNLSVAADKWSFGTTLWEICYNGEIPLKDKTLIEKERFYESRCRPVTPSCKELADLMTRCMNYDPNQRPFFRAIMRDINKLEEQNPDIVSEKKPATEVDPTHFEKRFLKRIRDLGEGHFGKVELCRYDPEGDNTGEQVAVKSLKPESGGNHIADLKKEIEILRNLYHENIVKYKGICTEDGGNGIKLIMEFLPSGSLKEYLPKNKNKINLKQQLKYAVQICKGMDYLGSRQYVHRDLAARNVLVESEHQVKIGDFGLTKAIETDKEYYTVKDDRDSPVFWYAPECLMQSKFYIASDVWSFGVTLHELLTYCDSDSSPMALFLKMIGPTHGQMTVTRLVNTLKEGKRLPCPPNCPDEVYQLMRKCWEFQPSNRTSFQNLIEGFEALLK
T4 sequence (O60674 whole entry): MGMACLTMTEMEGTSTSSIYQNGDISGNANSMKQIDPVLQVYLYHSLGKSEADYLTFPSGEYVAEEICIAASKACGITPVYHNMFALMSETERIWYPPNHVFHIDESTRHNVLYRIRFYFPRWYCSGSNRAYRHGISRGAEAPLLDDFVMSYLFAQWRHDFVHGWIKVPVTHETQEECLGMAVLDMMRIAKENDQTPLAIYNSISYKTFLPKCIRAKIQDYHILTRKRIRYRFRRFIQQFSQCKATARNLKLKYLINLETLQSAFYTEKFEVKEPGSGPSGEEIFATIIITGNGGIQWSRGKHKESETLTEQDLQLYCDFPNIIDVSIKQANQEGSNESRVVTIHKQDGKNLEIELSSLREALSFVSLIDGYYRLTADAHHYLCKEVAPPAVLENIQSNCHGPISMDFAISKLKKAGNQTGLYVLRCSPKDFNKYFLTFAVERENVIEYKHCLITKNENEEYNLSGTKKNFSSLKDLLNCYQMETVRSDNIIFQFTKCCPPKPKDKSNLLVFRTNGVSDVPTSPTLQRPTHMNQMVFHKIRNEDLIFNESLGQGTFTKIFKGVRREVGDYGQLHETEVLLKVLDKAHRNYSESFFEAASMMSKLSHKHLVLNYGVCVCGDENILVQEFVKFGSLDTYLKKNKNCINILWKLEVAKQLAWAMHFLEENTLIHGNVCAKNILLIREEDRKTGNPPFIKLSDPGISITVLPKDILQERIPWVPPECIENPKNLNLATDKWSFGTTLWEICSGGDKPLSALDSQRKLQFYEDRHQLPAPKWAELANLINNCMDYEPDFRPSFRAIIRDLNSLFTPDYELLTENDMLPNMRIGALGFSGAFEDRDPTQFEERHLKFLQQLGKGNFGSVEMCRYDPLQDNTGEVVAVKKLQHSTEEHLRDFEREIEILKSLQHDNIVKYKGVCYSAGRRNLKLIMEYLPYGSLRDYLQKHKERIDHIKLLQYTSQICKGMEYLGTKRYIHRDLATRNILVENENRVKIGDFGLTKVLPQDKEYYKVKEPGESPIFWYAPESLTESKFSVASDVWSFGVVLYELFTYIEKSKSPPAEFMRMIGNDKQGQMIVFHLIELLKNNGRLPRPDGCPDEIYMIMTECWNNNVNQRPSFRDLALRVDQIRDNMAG
T1 sequence (Q12809 whole entry, the tested form may be a part): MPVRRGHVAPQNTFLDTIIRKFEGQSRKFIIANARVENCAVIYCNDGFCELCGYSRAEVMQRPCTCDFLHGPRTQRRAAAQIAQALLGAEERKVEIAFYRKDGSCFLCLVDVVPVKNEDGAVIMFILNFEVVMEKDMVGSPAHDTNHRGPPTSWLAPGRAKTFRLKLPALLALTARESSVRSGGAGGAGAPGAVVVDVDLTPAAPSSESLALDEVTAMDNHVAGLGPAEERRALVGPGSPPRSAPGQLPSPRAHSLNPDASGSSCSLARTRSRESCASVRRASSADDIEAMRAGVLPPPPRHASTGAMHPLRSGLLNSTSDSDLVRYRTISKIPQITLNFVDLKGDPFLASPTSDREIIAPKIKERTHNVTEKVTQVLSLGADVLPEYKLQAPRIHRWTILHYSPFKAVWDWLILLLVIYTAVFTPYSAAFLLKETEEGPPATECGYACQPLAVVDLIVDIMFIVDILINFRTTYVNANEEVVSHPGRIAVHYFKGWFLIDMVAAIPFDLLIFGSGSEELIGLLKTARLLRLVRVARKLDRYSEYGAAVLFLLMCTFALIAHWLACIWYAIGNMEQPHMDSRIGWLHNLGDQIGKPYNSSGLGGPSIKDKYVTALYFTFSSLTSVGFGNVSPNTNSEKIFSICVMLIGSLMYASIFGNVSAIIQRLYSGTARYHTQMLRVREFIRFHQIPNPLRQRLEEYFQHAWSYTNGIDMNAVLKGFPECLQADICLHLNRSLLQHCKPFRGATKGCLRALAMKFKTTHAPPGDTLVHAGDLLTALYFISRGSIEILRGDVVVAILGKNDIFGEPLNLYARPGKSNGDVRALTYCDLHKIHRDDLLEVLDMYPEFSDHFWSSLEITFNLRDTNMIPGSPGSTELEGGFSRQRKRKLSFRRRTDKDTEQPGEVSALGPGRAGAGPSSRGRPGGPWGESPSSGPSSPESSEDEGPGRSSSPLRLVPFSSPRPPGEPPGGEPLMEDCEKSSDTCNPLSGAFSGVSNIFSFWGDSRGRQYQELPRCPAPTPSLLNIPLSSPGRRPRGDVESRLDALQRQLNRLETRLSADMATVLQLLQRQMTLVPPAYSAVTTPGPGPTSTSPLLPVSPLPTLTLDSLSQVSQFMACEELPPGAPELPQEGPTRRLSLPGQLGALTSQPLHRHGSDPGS

Structure (SMILES) | CLint scaled [1] [mL/min/kg] | bioavailability [2] [%] | IC50 [3] [nM] | IC50 [4] [nM] | Ratio IC50 (Homo sapiens) | logD at 100 µM [5] | CLint scaled [6] [mL/min/kg] | IC50 [7] [nM] | IC50 [8] [nM] | IC50 [9] [nM] | IC50 [10] [nM] | IC50 [11] [nM] | solubility at 100 µM [12] [µM] | clearance [13] [mL/min/kg] | CL free (Rattus norvegicus [14]) [mL/min/kg] | clearance [15] [mL/min/kg] | Vd [17] [L/kg] | bioavailability [18] [%] | Vd [19] [L/kg] | further results
Cn1cc(-c2ccc(Nc3nn([C@H]4COCC[C@@H]4C#N)cc3C(N)=O)cc2)cn1 | 55 | 18 | 0.2 | > 60000 | 23 | 1.48 | < 20 | 6 | 91 | 0.5 | 39 | 0.02 | 42 (≈ 16.4 µg/mL) | – | – | – | – | – | – | –
N#C[C@H]1CCOC[C@@H]1n1cc(C(N)=O)c(Nc2ccccc2)n1 | 70 | 79 | 2.9 | > 60000 | – | 2.08 | 6 | 33 | 361 | – | – | 0.4 | 18 (≈ 5.6 µg/mL) | 20 | 110 | – | – | – | – | –
N#C[C@H]1CCOC[C@@H]1n1cc(C(N)=O)c(Nc2ccc(F)cc2)n1 | < 40 | 40 | 1.8 | 40000 | 7 | 2.18 | < 20 | 31 | 304 | 2 | 334 | 0.3 | 42 (≈ 13.8 µg/mL) | – | – | – | – | – | – | –
CN(C)[C@H]1CC[C@H](n2cc(C(N)=O)c(Nc3ccc(Cl)cc3)n2)[C@@H](C#N)C1 | 109 | 16 | 13 | 12200 | – | 2.15 | 26 | 64 | 1230 | – | – | 1.5 | – | 41 | – | 21 | 11 | 42 | 8 | IC50 [16]: 3000 nM
COc1cc(Nc2nn([C@H]3COCC[C@@H]3C#N)cc2C(N)=O)ccc1Cl | 35 | 47 | 12 | – | 39 | 2.34 | 6 | 13 | 397 | – | 320 | 0.1 | – | 21 | 350 | 14 | 2.7 | 29 | 1.2 | bioavailability [20]: 32%; IC50 [21]: 1760 nM; half-life [22]: 1.6 h; clearance [23]: 19 mL/min/kg; half-life [24]: 1.1 h; CLint scaled [25]: 122 mL/min/kg; CLint scaled [26]: 36 mL/min/kg; CL free (Cynomolgus monkey): 581 mL/min/kg; Vd [27]: 2.8 L/kg; inhibition (Rattus norvegicus [28]): Dose-dependent effect; half-life [29]: 2.8 h; fraction unbound [30]: 0.033; fraction unbound [31]: 0.06
N#Cc1ccc(Nc2nn([C@H]3COCC[C@@H]3C#N)cc2C(N)=O)cc1 | 6 | 47 | 1.2 | 40000 | 8 | 1.77 | 3 | 13 | 230 | 1.2 | 89 | 0.15 | 130 (≈ 43.7 µg/mL) | 19 | 100 | 12 | 2.6 | 51 | 2.7 | bioavailability [20]: 18%; CL free (Canis familiaris): 67 mL/min/kg; IC50 [21]: 220 nM; half-life [22]: 1.4 h; clearance [23]: 2.4 mL/min/kg; half-life [24]: 2.6 h; CLint scaled [25]: 20 mL/min/kg; CLint scaled [26]: 6 mL/min/kg; CL free (Cynomolgus monkey): 12 mL/min/kg; Vd [27]: 1 L/kg; fraction unbound [32]: 0.18; inhibition (Rattus norvegicus [28]): Dose-dependent effect; half-life [29]: 5.6 h; fraction unbound [30]: 0.21; fraction unbound [31]: 0.19
N#C[C@H]1CCCC[C@@H]1n1cc(C(N)=O)c(Nc2ccccc2)n1 | 160 | – | – | > 60000 | – | 2.66 | 25 | – | – | – | – | – | – | 484 | 12100 | – | – | – | – | –
N#C[C@H]1C[C@@H](N2CCC2)CC[C@@H]1n1cc(C(N)=O)c(Nc2ccc([C@H](O)C(F)(F)F)cc2)n1 | – | 0 | – | – | – | 1.54 | – | – | – | – | – | – | – | – | – | – | – | – | – | Papp [33]: 3.3 ×10⁻⁶ cm/s
